The values that follow come from PMC1334386 (PLoS Biology, 2006).

Experiment [1] deals with HAUSP TRAF-like domain (residues 1–206). In words: gel filtration binding assay with HAUSP (residues 1–206). To be noted: Superdex-200, 25 mM Tris pH 8.0, 100 mM NaCl, 2 mM DTT, 4 °C, SDS-PAGE/Coomassie, protein alone, no competitor. The method, then:
(§1) Size-exclusion chromatography (gel filtration), using a Superdex-200 column (10/30, Amersham Pharmacia Biotech, Piscataway, New Jersey, United States), was employed to carry out all the in vitro binding assays. Proteins subjected to binding tests were incubated at 4 °C for at least 45 min to allow equilibrium to be reached. The flow rate was 0.5 ml/min, and the buffer contained 25 mM Tris (pH 8.0), 100 mM NaCl, and 2 mM DTT. All fractions were collected at 0.5 ml each. Aliquots of relevant fractions were mixed with SDS sample buffer and subjected to SDS-polyacrylamide gel electrophoresis. The proteins were visualized by Coomassie Blue staining. The column was calibrated with molecular-mass standards.
(Size exclusion chromatography separates by hydrodynamic size, large species first.)

Experiment [2] deals with T1, HAUSP TRAF-like domain (residues 53–206) (Homo sapiens, UniProt Q93009).
T1 construct: GST (N); made in house; host or cells: Escherichia coli BL21(DE3), vector pGEX-2T
T1 sequence (Q93009 53-206): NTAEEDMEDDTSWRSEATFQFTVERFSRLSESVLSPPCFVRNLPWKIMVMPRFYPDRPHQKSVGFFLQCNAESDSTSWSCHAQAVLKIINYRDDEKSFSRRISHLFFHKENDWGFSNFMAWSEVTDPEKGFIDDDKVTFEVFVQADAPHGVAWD
In words: gel filtration binding assay of MDM2 fragments with HAUSP TRAF-like domain. The settings on record: Superdex-200, HAUSP residues 53–206, 25 mM Tris pH 8.0, 100 mM NaCl, 2 mM DTT, 4 °C. The method, then:
as §1

The next experiment deals with full-length HAUSP. Briefly: gel filtration binding assay of MDM2 with full-length HAUSP. To be noted: Superdex-200, 25 mM Tris pH 8.0, 100 mM NaCl, 2 mM DTT, 4 °C. How it is done:
as §1

Turning to “MDM2 (residues 170–423): MDM2 fragment, residues 170–423”, the “complex formation with HAUSP (residues 1–206)” value in experiment [1] is “form a stable complex”.

Take “MDM2 (residues 170–432): 33-kDa fragment of MDM2 (residues 170–432)”: in experiment [2], the “complex formation with HAUSP TRAF-like domain” value is listed as “formed a stable complex”. For the same substance, the “complex formation with full-length HAUSP” value in the experiment with full-length HAUSP is “formed a stable complex”.
